Seven compounds from paper PMC12251305 (Molecules, 2025) can be followed below.

Read-outs that look alike come from different tables or passages of the source. Where only a bound is given, the exact number is not on record here.

Series [1] has as its target T1, MOR (Homo sapiens, UniProt P35372). Description: Radioligand competition binding at MOR.
The next series concerns the target T2, hNPFF1-R (Homo sapiens, UniProt Q9GZQ6).
T2 construct: expressed in transfected cells; host or cells: CHO cells
The series is described as follows: Radioligand competition binding at NPFF1-R.

In series [2] the target is T3, DOR (Homo sapiens, UniProt P41143). Description: [35S]GTPγS functional assay (agonist mode) at DOR. The format is biochemical. For orientation: GTPγS is a poorly hydrolysed GTP analogue; its binding reports G protein activation.
T3 sequence (P41143 whole entry): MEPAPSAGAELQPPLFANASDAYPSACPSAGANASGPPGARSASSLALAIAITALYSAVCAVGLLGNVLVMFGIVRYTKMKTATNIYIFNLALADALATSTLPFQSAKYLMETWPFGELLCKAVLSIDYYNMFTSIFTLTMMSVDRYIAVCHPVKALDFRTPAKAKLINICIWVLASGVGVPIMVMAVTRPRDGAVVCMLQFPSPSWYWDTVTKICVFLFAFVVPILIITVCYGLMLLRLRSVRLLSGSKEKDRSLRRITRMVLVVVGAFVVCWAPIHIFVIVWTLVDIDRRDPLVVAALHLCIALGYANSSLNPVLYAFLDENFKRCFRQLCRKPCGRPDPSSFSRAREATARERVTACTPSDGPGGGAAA
Series [3] concerns C57BL/6J mice. Description: Antinociception assay (55 °C warm water tail withdrawal assay). In kind it is in vivo, mouse. Particulars: 30 nmol i.c.v., 55 °C.
Series [4] concerns the target T4, KOR (Homo sapiens, UniProt P41145). The series is described as follows: biochemical. The format is binding.
The target in series [5] is T4, KOR. Description: [35S]GTPγS functional assay (agonist mode) at KOR. The format is biochemical.
Series [6] has as its target T3, DOR. The series is described as follows: Radioligand competition binding at DOR. (In general: Loss of bound radioactivity is the signal in a displacement assay; it reports binding, not function.)
Series [7] addresses T1, MOR. The series is described as follows: [35S]GTPγS functional assay (agonist mode) at MOR. The format is biochemical.
The next series deals with T5, hNPFF2-R (Homo sapiens, UniProt Q9Y5X5).
T5 construct: expressed in transfected cells; host or cells: CHO cells (membranes)
T5 sequence (Q9Y5X5 whole entry): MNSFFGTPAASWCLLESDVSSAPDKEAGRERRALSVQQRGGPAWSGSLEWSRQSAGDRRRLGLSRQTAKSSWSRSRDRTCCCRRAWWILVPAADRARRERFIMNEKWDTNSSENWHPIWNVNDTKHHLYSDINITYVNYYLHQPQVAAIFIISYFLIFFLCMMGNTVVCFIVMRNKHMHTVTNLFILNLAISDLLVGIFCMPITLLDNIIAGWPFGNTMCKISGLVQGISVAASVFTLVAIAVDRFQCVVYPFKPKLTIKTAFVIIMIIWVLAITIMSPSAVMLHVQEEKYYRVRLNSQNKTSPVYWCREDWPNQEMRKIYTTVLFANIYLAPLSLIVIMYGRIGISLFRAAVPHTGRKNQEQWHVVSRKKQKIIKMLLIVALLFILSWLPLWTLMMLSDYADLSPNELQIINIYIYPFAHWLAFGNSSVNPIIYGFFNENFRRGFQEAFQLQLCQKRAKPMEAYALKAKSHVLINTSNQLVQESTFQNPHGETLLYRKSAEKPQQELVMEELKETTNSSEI
The series is described as follows: Radioligand competition binding at NPFF2-R.

Series [8] concerns C57BL/6J mice. Description: Anti-hyperalgesia assay (48 °C warm water tail withdrawal assay, NPFF-induced hyperalgesia). Conditions: 30 nmol i.c.v. two hours before NPFF 30 nmol i.c.v. The format is in vivo, mouse.
In series [9] the test system is C57BL/6J mice. The series is described as follows: Excreta assay (intestinal transit). Conditions: 90 min.
The subject of series [10] is C57BL/6J mice. Description: Acute antinociceptive tolerance assay (55 °C warm water tail withdrawal). The format is in vivo, mouse. Particulars: i.c.v.
The subject of series [11] is C57BL/6J mice. The series is described as follows: Locomotor testing (CLAMS). The format is in vivo, mouse. Conditions: 100 nmol i.c.v., 90 min.
Series [12] has as its system C57BL/6J mice. Description: Respiration testing (CLAMS). In kind it is in vivo, mouse. Conditions: 100 nmol i.c.v., 90 min.
Setting [13] is: read-out: Receptor Binding, Ki ± SEM NPFF1-R.
The mark [14] stands for this setting: GTPγS Delta Agonist Functional Assay EC50 (Figure S2 curve fit), Figure S2, axis Log(M), DPDPE run beside each compound.
[15] abbreviates: [35S]GTPγS DOR EC50 ± SEM, agonist mode, standard DPDPE.
Where [16] appears, read: [35S]GTPγS KOR EC50 ± SEM, agonist mode, standard U-69,593.
Setting [17] is: read-out: Receptor Binding, Ki ± SEM DOR.
Where [18] appears, read: GTPγS Mu Agonist Functional Assay EC50 (Figure S2 curve fit).
The mark [19] stands for this setting: [3H]EYF, transfected CHO cell membranes, read-out: Receptor Binding, Ki ± SEM NPFF2-R.
Setting [20] is: GTPγS Kappa Agonist Functional Assay EC50 (Figure S2 curve fit), Figure S2, axis Log(M), U69,593 run beside each compound.

T4 sequence (P41145 whole entry): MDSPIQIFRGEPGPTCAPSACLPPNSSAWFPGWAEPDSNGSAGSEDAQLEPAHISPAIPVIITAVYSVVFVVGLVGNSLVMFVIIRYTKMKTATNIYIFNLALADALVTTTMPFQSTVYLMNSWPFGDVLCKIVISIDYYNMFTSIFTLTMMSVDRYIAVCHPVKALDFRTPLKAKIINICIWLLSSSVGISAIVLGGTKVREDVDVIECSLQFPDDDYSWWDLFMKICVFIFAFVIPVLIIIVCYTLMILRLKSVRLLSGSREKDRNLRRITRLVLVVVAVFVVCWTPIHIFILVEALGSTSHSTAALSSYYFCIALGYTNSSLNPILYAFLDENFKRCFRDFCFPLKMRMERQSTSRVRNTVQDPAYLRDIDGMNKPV
T1 sequence (P35372 whole entry): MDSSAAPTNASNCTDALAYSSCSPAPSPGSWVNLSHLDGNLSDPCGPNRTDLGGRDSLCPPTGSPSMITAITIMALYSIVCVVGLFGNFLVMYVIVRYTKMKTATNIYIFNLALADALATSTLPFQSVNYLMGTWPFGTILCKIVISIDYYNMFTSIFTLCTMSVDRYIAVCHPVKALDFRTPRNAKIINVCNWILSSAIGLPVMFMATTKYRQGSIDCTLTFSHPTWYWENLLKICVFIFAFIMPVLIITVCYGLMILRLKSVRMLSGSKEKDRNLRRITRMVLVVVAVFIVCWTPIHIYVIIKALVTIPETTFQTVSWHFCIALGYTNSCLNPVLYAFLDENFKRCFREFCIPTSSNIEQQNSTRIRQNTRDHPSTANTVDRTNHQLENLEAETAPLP
T2 sequence (Q9GZQ6 whole entry): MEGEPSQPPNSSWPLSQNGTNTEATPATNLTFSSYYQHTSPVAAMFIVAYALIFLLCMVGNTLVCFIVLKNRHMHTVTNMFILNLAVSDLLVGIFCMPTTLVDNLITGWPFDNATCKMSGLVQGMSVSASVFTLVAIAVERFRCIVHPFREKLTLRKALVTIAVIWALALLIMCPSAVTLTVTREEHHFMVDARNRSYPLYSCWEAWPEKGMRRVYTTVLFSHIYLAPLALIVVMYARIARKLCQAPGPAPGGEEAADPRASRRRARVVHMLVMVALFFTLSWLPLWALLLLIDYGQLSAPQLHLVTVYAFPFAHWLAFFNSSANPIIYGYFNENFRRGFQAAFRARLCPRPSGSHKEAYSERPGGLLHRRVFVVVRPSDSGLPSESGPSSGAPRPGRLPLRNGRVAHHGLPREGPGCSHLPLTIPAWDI

Broadly, the Ki is the dissociation constant of the complex between target and ligand, obtained from inhibition or displacement. As for `N=C(N)Nc1cccc(C(=C2CCN(Cc3ccccc3)CC2)c2ccc(O)cc2)c1` [Compound 14a, 1-(3-((1-Benzylpiperidin-4-ylidene)(4-hydroxyphenyl)methyl)phenyl)guanidine], the Ki at MOR [1] was 33.5 ± 4.7 nM; at hNPFF1-R (setting [13]), 1720 ± 308 nM; at KOR [4], 32.3 ± 3.5 nM; on DOR [6] (setting [17]), 2.33 ± 0.6 nM; on hNPFF2-R (setting [19]) it was over 10000 nM. The EC50 came out at 4.55e-07 M on DOR [2] (setting [14]); 4.55e-07 ± 6.17e-08 M on DOR [2] (setting [15]); 4.82e-07 ± 8.16e-08 M at KOR [5] (setting [16]); 420 nM on MOR [7] (setting [18]); 420 ± 54.5 nM at MOR [7] ([35S]GTPγS MOR EC50 ± SEM). Further, in the series on C57BL/6J mice [3], the “antinociceptive activity over time (screening)” value is “did not produce statistically significant antinociception”. Besides, at KOR [4], the “reduction of affinity at KOR relative to 13a” value was determined as 11 fold. Further, at DOR [6] (hydroxyl shifted from 3′- to 4′- position), the “reduction of affinity at DOR relative to 13a” value was 4 fold. Besides, in the series on C57BL/6J mice [8], the “prevention of NPFF-induced hyperalgesia (screening)” value (shortened to “prevention”) is given as “greater anti-NPFF activity”.

Consider `N=C(N)Nc1cccc(C(=C2CCN(Cc3ccccc3)CC2)c2ccccc2)c1` [Compound 22a, 1-(3-((1-Benzylpiperidin-4-ylidene)(phenyl)methyl)phenyl)guanidine], for which the Ki on MOR [1] turned out to be 6.45 ± 1.23 nM; on hNPFF1-R (setting [13]), 1400 ± 61 nM; at KOR [4], 91 ± 9.9 nM; at DOR [6] (setting [17]), 3.37 ± 0.59 nM; at hNPFF2-R (setting [19]), 2570 ± 423 nM. The EC50 at DOR [2] (setting [14]) is 2.56e-07 M; on DOR [2] (setting [15]) it was 2.56e-07 ± 2.49e-08 M; on KOR [5] (setting [16]), 2.55e-07 ± 5.77e-08 M; on MOR [7] ([35S]GTPγS MOR EC50 ± SEM) it was 102 ± 21.3 nM. The “antinociceptive activity over time (screening)” value in the series on C57BL/6J mice [3] is “displayed antinociception in vivo second only to 22b”. Moreover, the “prevention” value in the series on C57BL/6J mice [8] is reported as “more moderate, yet still statistically significant, effect”.

On to `CN1CC[C@]23c4c5ccc(O)c4O[C@H]2[C@@H](O)C=C[C@H]3[C@H]1C5` [morphine, reference compound], for which the entries for the “number of excreted fecal boli” value with C57BL/6J mice [9] (30 nmol i.c.v.) and with C57BL/6J mice [9] (100 nmol i.c.v.) were 1.8 ± 0.8 boli and 1.5 ± 0.6 boli, respectively. In the series on C57BL/6J mice [10] (55 °C, baseline dose response), the “antinociception ED50 (95% CI), single administration” value is listed as 2.35 (1.13–5.03) nmol. For the same compound, in the series on C57BL/6J mice [10] (given 8 h after a first dose (morphine 3 nmol, 22b 8.7 nmol), 55 °C), the “antinociception ED50 (95% CI), second administration” value was 22.5 (8.48–61.9) nmol. Further, in the series on C57BL/6J mice [10] (second administration 8 h after first), the “rightward shift of antinociceptive dose response (acute tolerance)” value is listed as 9.6 fold. Besides, the “effect on ambulation (spontaneous locomotor activity)” value in the series with C57BL/6J mice [11] is “increased ambulation”. Moreover, in the series with C57BL/6J mice [12], the “effect on respiration rate” value is recorded as “significant respiratory depression”.

In the case of `CC(C)C[C@H](NC(=O)[C@@H](N)Cc1ccccc1)C(=O)N[C@@H](Cc1ccccc1)C(=O)N[C@@H](CCC(N)=O)C(=O)N1CCC[C@H]1C(=O)N[C@@H](CCC(N)=O)C(=O)N[C@@H](CCCN=C(N)N)C(=O)N[C@@H](Cc1ccccc1)C(N)=O` [NPFF, neuropeptide FF, reference compound], the inhibition constant Ki on MOR [1], on KOR [4] and at DOR [6] was over 10000 nM in each case.

As to `N=C(N)Nc1ccc(C(=C2CCN(Cc3ccccc3)CC2)c2cccc(O)c2)cc1` [Compound 13b, 1-(4-((1-Benzylpiperidin-4-ylidene)(3-hydroxyphenyl)methyl)phenyl)guanidine], the Ki worked out at 56.2 ± 7.5 nM on MOR [1]; 605 ± 136 nM on hNPFF1-R (setting [13]); 30.6 ± 1.1 nM on KOR [4]; 1.67 ± 0.61 nM on DOR [6] (setting [17]); 6020 ± 1150 nM at hNPFF2-R (setting [19]). Moreover, the EC50 at DOR [2] (setting [14]) came to 9.61e-09 M; on DOR [2] (setting [15]) it was 9.62e-09 ± 1.27e-09 M; on KOR [5] (setting [20]), 2.68e-07 M; on KOR [5] (setting [16]) it was 2.68e-07 ± 3.19e-08 M; at MOR [7] ([35S]GTPγS MOR EC50 ± SEM), 1440 ± 226 nM. Besides, in the series with C57BL/6J mice [3], the “antinociceptive activity over time (screening)” value was “lacked any marked analgesic activity”. In the series with C57BL/6J mice [8], the “prevention” value is listed as “greater anti-NPFF activity”.

As to `N=C(N)Nc1ccc(C(=C2CCN(Cc3ccccc3)CC2)c2ccc(O)cc2)cc1` [Compound 14b, 1-(4-((1-Benzylpiperidin-4-ylidene)(4-hydroxyphenyl)methyl)phenyl)guanidine], the Ki at MOR [1] (read-out: Receptor Binding, Ki ± SEM MOR) stood at 313 ± 11 nM; on hNPFF1-R it was 1980 ± 288 nM; on KOR [4], 56.6 ± 3.8 nM; at DOR [6], 6.46 ± 1.11 nM; on hNPFF2-R it was 4820 ± 1010 nM. In addition, the EC50 on DOR [2] (Figure S2, axis Log(M), DPDPE run beside each compound, read-out: GTPγS Delta Agonist Functional Assay EC50 (Figure S2 curve fit)) came to 2.27e-07 M; at DOR [2] (agonist mode, standard DPDPE, read-out: [35S]GTPγS DOR EC50 ± SEM) it was 2.27e-07 ± 1.25e-08 M; at KOR [5] (setting [20]), 1.36e-07 M; at KOR [5] (setting [16]) it was 1.36e-07 ± 2.37e-08 M; at MOR [7] it was 18600 nM. The “antinociceptive activity over time (screening)” value in the series with C57BL/6J mice [3] is “displayed antinociception in vivo second only to 22b”. Further, in the series on C57BL/6J mice [8], the “prevention” value is “more moderate, yet still statistically significant, effect”.

With `N=C(N)Nc1cccc(C(=C2CCN(Cc3ccccc3)CC2)c2cccc(O)c2)c1` [Compound 13a, 1-(3-((1-Benzylpiperidin-4-ylidene)(3-hydroxyphenyl)methyl)phenyl)guanidine], the Ki is 5.06 ± 0.21 nM on MOR [1]; 2180 ± 280 nM at hNPFF1-R (setting [13]); 2.82 ± 0.39 nM at KOR [4]; 0.481 ± 0.192 nM at DOR [6] (setting [17]); 7080 ± 1260 nM at hNPFF2-R (setting [19]). Further, the EC50 at DOR [2] (setting [15]) is 2.41e-08 ± 2.5e-09 M; at KOR [5] (setting [20]) it was 4.18e-08 M; on KOR [5] (setting [16]) it was 4.18e-08 ± 4.9e-09 M; on MOR [7] (setting [18]) it was 28.3 nM; on MOR [7] ([35S]GTPγS MOR EC50 ± SEM) it was 28.3 ± 2.5 nM. In the series on C57BL/6J mice [3], the “antinociceptive activity over time (screening)” value is reported as “did not show statistically significant antinociceptive activity”. Also, in the series on C57BL/6J mice [8], the “prevention” value is on record as “more moderate, yet still statistically significant, effect”.
